Measurements taken from the NIST ThermoML archive (doi:10.1021/je0301040).

Assay: xn = mol fraction of the nth substance listed

FC(Cl)(Cl)Cl [trichlorofluoromethane] + FC(F)Cl
Conditions | mass density [kg/m3]
374.97 K, 3116.9 kPa, Liquid, Pycnometric method, x1 = 0.8336 | 1216.83
374.97 K, 14051 kPa, Liquid, Pycnometric method, x1 = 0.8336 | 1279.66
374.97 K, 21566 kPa, Liquid, Pycnometric method, x1 = 0.8336 | 1310.86
374.97 K, 27844 kPa, Liquid, Pycnometric method, x1 = 0.8336 | 1332.88
374.97 K, 35188 kPa, Liquid, Pycnometric method, x1 = 0.8336 | 1355.43
374.97 K, 42212 kPa, Liquid, Pycnometric method, x1 = 0.8336 | 1374.59
374.97 K, 48936 kPa, Liquid, Pycnometric method, x1 = 0.8336 | 1391.15
374.97 K, 56118 kPa, Liquid, Pycnometric method, x1 = 0.8336 | 1407.35
374.97 K, 63201 kPa, Liquid, Pycnometric method, x1 = 0.8336 | 1422.2
374.97 K, 67438 kPa, Liquid, Pycnometric method, x1 = 0.8336 | 1430.6
374.98 K, 99.9 kPa, Fluid (supercritical or subcritical phases), Burnett expansion method, x1 = 0.832 | 4.192
374.98 K, 100.73 kPa, Fluid (supercritical or subcritical phases), Burnett expansion method, x1 = 0.832 | 4.2353
374.98 K, 141.34 kPa, Fluid (supercritical or subcritical phases), Burnett expansion method, x1 = 0.832 | 5.9685
374.98 K, 195.81 kPa, Fluid (supercritical or subcritical phases), Burnett expansion method, x1 = 0.832 | 8.3248
374.98 K, 197.47 kPa, Fluid (supercritical or subcritical phases), Burnett expansion method, x1 = 0.832 | 8.4097
374.98 K, 216.98 kPa, Fluid (supercritical or subcritical phases), Burnett expansion method, x1 = 0.832 | 9.2699
374.98 K, 272.55 kPa, Fluid (supercritical or subcritical phases), Burnett expansion method, x1 = 0.832 | 11.7304
374.98 K, 275.03 kPa, Fluid (supercritical or subcritical phases), Burnett expansion method, x1 = 0.832 | 11.8505
374.98 K, 301.92 kPa, Fluid (supercritical or subcritical phases), Burnett expansion method, x1 = 0.832 | 13.0615
374.98 K, 377.56 kPa, Fluid (supercritical or subcritical phases), Burnett expansion method, x1 = 0.832 | 16.5279
374.98 K, 381 kPa, Fluid (supercritical or subcritical phases), Burnett expansion method, x1 = 0.832 | 16.6977
374.98 K, 417.41 kPa, Fluid (supercritical or subcritical phases), Burnett expansion method, x1 = 0.832 | 18.4053
374.98 K, 518.62 kPa, Fluid (supercritical or subcritical phases), Burnett expansion method, x1 = 0.832 | 23.2877
374.98 K, 523.72 kPa, Fluid (supercritical or subcritical phases), Burnett expansion method, x1 = 0.832 | 23.528
374.98 K, 569 kPa, Gas, isochoric method, x1 = 0.832 | 201.277
374.98 K, 1592.7 kPa, Liquid, Pycnometric method, x1 = 0.8336 | 1204.96
374.98 K, 1802 kPa, Liquid, Pycnometric method, x1 = 0.8336 | 1206.68
374.98 K, 3500.8 kPa, Liquid, Pycnometric method, x1 = 0.8336 | 1219.67
374.98 K, 7519.3 kPa, Liquid, Pycnometric method, x1 = 0.8336 | 1245.72
375.98 K, 3481.1 kPa, Liquid, isochoric method, x1 = 0.832 | 1216.37
375.98 K, 3481.3 kPa, Liquid, isochoric method, x1 = 0.832 | 1216.37
380.97 K, 5662.2 kPa, Liquid, isochoric method, x1 = 0.832 | 1216.02
385.97 K, 7843.6 kPa, Liquid, isochoric method, x1 = 0.832 | 1215.66
385.97 K, 7845.9 kPa, Liquid, isochoric method, x1 = 0.832 | 1215.66
389.97 K, 399.7 kPa, Gas, isochoric method, x1 = 0.832 | 131.569
389.97 K, 864.3 kPa, Gas, isochoric method, x1 = 0.832 | 304.496
399.96 K, 7536.5 kPa, Liquid, Pycnometric method, x1 = 0.8336 | 1168.49
399.96 K, 49152 kPa, Liquid, Pycnometric method, x1 = 0.8336 | 1348.85
399.97 K, 617 kPa, Gas, isochoric method, x1 = 0.832 | 201.042
399.97 K, 3101 kPa, Liquid, Pycnometric method, x1 = 0.8336 | 1123.2
399.97 K, 3459.9 kPa, Liquid, Pycnometric method, x1 = 0.8336 | 1127.62
399.97 K, 3838.5 kPa, Liquid, Pycnometric method, x1 = 0.8336 | 1132.14
399.97 K, 5333.9 kPa, Liquid, Pycnometric method, x1 = 0.8336 | 1148.2
399.97 K, 14526 kPa, Liquid, Pycnometric method, x1 = 0.8336 | 1217.33
399.97 K, 21523 kPa, Liquid, Pycnometric method, x1 = 0.8336 | 1253.75
399.97 K, 28491 kPa, Liquid, Pycnometric method, x1 = 0.8336 | 1283.14
399.97 K, 35354 kPa, Liquid, Pycnometric method, x1 = 0.8336 | 1307.71
399.97 K, 56281 kPa, Liquid, Pycnometric method, x1 = 0.8336 | 1366.92
399.97 K, 63214 kPa, Liquid, Pycnometric method, x1 = 0.8336 | 1383.07
399.98 K, 2379 kPa, Liquid, Pycnometric method, x1 = 0.8336 | 1111.44
399.98 K, 2438.9 kPa, Liquid, Pycnometric method, x1 = 0.8336 | 1114.58
399.98 K, 2791.2 kPa, Liquid, Pycnometric method, x1 = 0.8336 | 1119.29
399.98 K, 41888 kPa, Liquid, Pycnometric method, x1 = 0.8336 | 1328.37
404.97 K, 909.7 kPa, Gas, isochoric method, x1 = 0.832 | 304.283
404.97 K, 1209.7 kPa, Gas, isochoric method, x1 = 0.832 | 426.452
409.97 K, 5121.7 kPa, Liquid, isochoric method, x1 = 0.832 | 1111.12
414.97 K, 1254.6 kPa, Gas, isochoric method, x1 = 0.832 | 426.252
414.97 K, 1558.2 kPa, Gas, isochoric method, x1 = 0.832 | 556.482
415.97 K, 7015.9 kPa, Liquid, isochoric method, x1 = 0.832 | 1110.75
419.96 K, 1587.9 kPa, Gas, isochoric method, x1 = 0.832 | 556.352
421.97 K, 8915.8 kPa, Liquid, isochoric method, x1 = 0.832 | 1110.38
424.96 K, 76.05 kPa, Fluid (supercritical or subcritical phases), Burnett expansion method, x1 = 0.832 | 2.7936
424.96 K, 106.8 kPa, Fluid (supercritical or subcritical phases), Burnett expansion method, x1 = 0.832 | 3.939
424.96 K, 136.17 kPa, Fluid (supercritical or subcritical phases), Burnett expansion method, x1 = 0.832 | 5.049
424.96 K, 191.33 kPa, Fluid (supercritical or subcritical phases), Burnett expansion method, x1 = 0.832 | 7.117
424.96 K, 210.5 kPa, Fluid (supercritical or subcritical phases), Burnett expansion method, x1 = 0.832 | 7.8282
424.96 K, 268.07 kPa, Fluid (supercritical or subcritical phases), Burnett expansion method, x1 = 0.832 | 10.034
